# Like-named read-outs stand apart in the source and are kept apart here.
# Experiments:
# [1] = In vitro human microsomal stability assay; format: in vitro ADME; conditions: human, microsomes, 0.5 h, 0.5 μM, pH 7.4
# Outline: (§1)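 NADPH-fortified liver microsome incubations at 37° C. served for both species: Sprague-Dawley rat and human.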
# human TRPV3 = molecular target: T1, human TRPV3 (Homo sapiens, UniProt Q8NET8); assay: In vitro antagonism of recombinant human TRPV3 activation (FLIPR Tetra calcium assay); format: cell-based; conditions: HEK293 cells stably expressing human TRPV3, agonist 2-APB at 80 μM
# T1 construct: expressed in transfected cells
# T1 sequence (Q8NET8 1-790): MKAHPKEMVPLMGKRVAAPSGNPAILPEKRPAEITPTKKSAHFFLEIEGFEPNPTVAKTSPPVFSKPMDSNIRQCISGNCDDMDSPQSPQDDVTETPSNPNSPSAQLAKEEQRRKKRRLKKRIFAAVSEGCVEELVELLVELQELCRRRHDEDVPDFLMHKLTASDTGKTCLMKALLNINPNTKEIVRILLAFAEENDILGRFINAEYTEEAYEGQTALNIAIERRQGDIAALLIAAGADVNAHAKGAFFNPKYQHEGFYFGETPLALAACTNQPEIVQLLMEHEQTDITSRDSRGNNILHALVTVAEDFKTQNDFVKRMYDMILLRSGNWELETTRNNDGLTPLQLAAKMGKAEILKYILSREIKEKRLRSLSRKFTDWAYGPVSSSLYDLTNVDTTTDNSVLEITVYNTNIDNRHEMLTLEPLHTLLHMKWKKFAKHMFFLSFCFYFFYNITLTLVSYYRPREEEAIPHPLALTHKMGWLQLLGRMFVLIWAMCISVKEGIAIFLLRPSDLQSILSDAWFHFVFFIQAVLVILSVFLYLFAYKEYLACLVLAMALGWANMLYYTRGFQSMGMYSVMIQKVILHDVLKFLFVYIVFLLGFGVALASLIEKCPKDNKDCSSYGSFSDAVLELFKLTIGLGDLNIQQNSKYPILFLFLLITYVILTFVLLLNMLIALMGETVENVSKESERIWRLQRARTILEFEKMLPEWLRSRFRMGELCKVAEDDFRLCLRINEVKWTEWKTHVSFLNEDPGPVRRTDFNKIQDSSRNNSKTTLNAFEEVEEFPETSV
# Outline: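 HEK293 cells stably expressing human TRPV3, loaded with Calcium-4 dye for 90–120 min, received compound in DPBS, then 80 μM 2-APB (EC80) 3 min later. Max-minus-min fluorescence expressed as % of 2-APB response without antagonist; IC50 values mostly averages of n≥2 runs.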
# [2] = In vitro rat microsomal stability assay; format: in vitro ADME, rat (Sprague-Dawley); conditions: Sprague-Dawley, rat, microsomes, 0.5 h, 0.5 μM, pH 7.4
# Outline: as §1
# [3] = actual measured value shown parenthetically, in most cases average of at least two runs, read-out: IC50
# [4] = reported range, read-out: IC50 (range class)
Compound,HUMAN MICROSOMAL STABILITY (% REMAINING AFTER 30 MINUTES) [1],IC50 (human TRPV3; [3]),RAT MICROSOMAL STABILITY (% REMAINING AFTER 30 MINUTES) [2],IC50 (human TRPV3; [4])
"OC(c1ccccn1)C1(c2ccc(Cl)c(Cl)c2)CCCO1 (single isomer, unassigned) [Example 98]",7.6%,0.11 µM,0.020%,
"OC(c1ccccn1)C1(c2ccc(C(F)(F)F)cc2)CCNCC1 (stereo not drawn) [Example 147, pyridin-2-yl{4-[4-(trifluoromethyl)phenyl]piperidin-4-yl}methanol]",>85%,> 20 µM,79%,> 20 µM
"OC(c1ccccn1)C1(c2ccc(Cl)c(Cl)c2)CCCCC1 (stereo not drawn) [Example 43, [1-(3,4-dichlorophenyl)cyclohexyl](pyridin-2-yl)methanol]",1.8%,0.66 µM,0.31%,0.05 to 0.5 µM
"O/N=C(\c1ccccn1)C1(c2ccc(Cl)c(Cl)c2)CCC1 [Example 230, (Z)-[1-(3,4-dichlorophenyl)cyclobutyl](pyridin-2-yl)methanone oxime]",33%,> 10 µM,30%,
"OC(C1CCc2cccnc21)C1(c2cccc(C(F)(F)F)c2)CCC1 (stereo not drawn) [Example 186, (syn)-6,7-dihydro-5H-cyclopenta[b]pyridin-7-yl{1-[3-(trifluoromethyl)-phenyl]cyclobutyl}methanol]",0.18%,> 20 µM,<0.01%,> 20 µM
"N[C@@H]1CCC[C@H]1[C@@H](O)C1(c2ccc(OC(F)(F)F)cc2)CCC1 [Example 223, (R)-[(1R,2R)-2-aminocyclopentyl]{1-[4-(trifluoromethoxy)phenyl]-cyclobutyl}methanol]",>85%,2.07 µM,65%,
"O=C1CC(c2ccc(F)c(Cl)c2)(C(O)c2ccccn2)C1 (stereo not drawn) [Example 258, 3-(3-chloro-4-fluorophenyl)-3-[hydroxy(pyridin-2-yl)methyl]cyclobutanone]",70%,11 µM,53%,
"OC(c1ccccn1)C1(c2cncc(C(F)(F)F)c2)CCC1 (stereo not drawn) [Example 110, pyridin-2-yl{1-[5-(trifluoromethyl)pyridin-3-yl]cyclobutyl}methanol]",8.0%,0.5 µM,2.8%,
"O=C1CC(c2ccc(C(F)(F)F)cc2)(C(O)c2ccccn2)C1 (stereo not drawn) [Example 160, 3-[hydroxy(pyridin-2-yl)methyl]-3-[4-(trifluoromethyl)phenyl]-cyclobutanone]",>85%,6.11 µM,60%,
"O=C1CC(c2cncc(C(F)(F)F)c2)([C@H](O)c2ccccn2)C1 [Example 296, 3-[(S)-hydroxy(pyridin-2-yl)methyl]-3-[5-(trifluoromethyl)pyridin-3-yl]-cyclobutanone]",67%,> 20 µM,12%,> 20 µM
"CC(C)(C)OC(=O)N1CCC(c2ccc(C(F)(F)F)cc2)(C(O)c2ccccn2)CC1 (stereo not drawn) [Example 156, tert-butyl 4-[hydroxy(pyridin-2-yl)methyl]-4-[4-(trifluoromethyl)phenyl]-piperidine-1-carboxylate]",26%,> 20 µM,0.08%,> 20 µM
"O=C1CC(c2cccc(OC(F)(F)F)c2)([C@@H](O)c2ccccn2)C1 (single isomer, unassigned) [Example 257]",42%,9.51 µM,57%,
"OC(c1ccccn1)C1(c2ccc(OC(F)(F)F)cc2)CCOCC1 (stereo not drawn) [Example 67, pyridin-2-yl{4-[4-(trifluoromethoxy)phenyl]tetrahydro-2H-pyran-4-yl}-methanol]",58%,2.6 µM,47%,
"OC(c1ccccn1)C1(c2ccc(OC(F)(F)F)cc2)CCC1 (stereo not drawn) [Example 12, pyridin-2-yl{1-[4-(trifluoromethoxy)phenyl]cyclobutyl}methanol]",24%,0.42 µM,11%,
"OC(C1CCCc2cccnc21)C1(c2ccc(OC(F)(F)F)cc2)CCC1 (single isomer, unassigned) [Example 177, (anti)-5,6,7,8-tetrahydroquinolin-8-yl{1-[4-(trifluoromethoxy)phenyl]-cyclobutyl}methanol]",0.12%,3.38 µM,<0.01%,
"O=C1CC(c2ccnc(C(F)(F)F)c2)([C@H](O)c2ccccn2)C1 [Example 299, 3-[(S)-hydroxy(pyridin-2-yl)methyl]-3-[2-(trifluoromethyl)pyridin-4-yl]-cyclobutanone]",>85%,> 20 µM,>85%,> 20 µM
"OC1CC(c2cncc(C(F)(F)F)c2)(C(O)c2ccccn2)C1 [Example 304, trans-3-[(S)-hydroxy(pyridin-2-yl)methyl]-3-[5-(trifluoromethyl)pyridin-3-yl]cyclobutanol]",>85%,0.25 µM,44%,
"COc1ccc(C(O)C2(c3ccc(Cl)c(Cl)c3)CCC2)nc1 (stereo not drawn) [Example 287, [1-(3,4-dichlorophenyl)cyclobutyl](5-methoxypyridin-2-yl)methanol]",15%,> 20 µM,<0.01%,> 20 µM
"OC(c1ccccn1)C1(c2cccc(C(F)(F)F)c2)CC(F)(F)C1 (stereo not drawn) [Example 113, {3,3-difluoro-1-[3-(trifluoromethyl)phenyl]cyclobutyl}(pyridin-2-yl)-methanol]",24%,0.26 µM,18%,
"OC(CC1(c2ccc(OC(F)(F)F)cc2)CCC1)c1ccccn1 (stereo not drawn) [Example 76, 1-(pyridin-2-yl)-2-{1-[4-(trifluoromethoxy)phenyl]cyclobutyl}ethanol]",39%,0.65 µM,0.47%,
"OC(C1CCCc2cccnc21)C1(c2ccc(F)c(F)c2)CCC1 (single isomer, unassigned) [Example 170, (syn)-[1-(3,4-difluorophenyl)cyclobutyl][5,6,7,8-tetrahydroquinolin-8-yl]-methanol]",<0.01%,> 20 µM,<0.01%,> 20 µM
"OC(C1CCc2cccnc21)C1(c2ccc(Cl)c(Cl)c2)CCC1 (stereo not drawn) [Example 167, (anti)-[1-(3,4-dichlorophenyl)cyclobutyl][6,7-dihydro-5H-cyclopenta[b]-pyridin-7-yl]methanol]",9.5%,> 20 µM,<0.01%,> 20 µM

# From patent US8772499B2, “TRPV3 modulators” (AbbVie Inc., priority 2011, dated 2014)
